Measured values taken from patent EP0356128A2, “3-(Aminopropyl)methyl phosphinic acid as a therapeutic agent” (SMITH KLINE & FRENCH LABORATORIES LIMITED, priority 1988, dated 1990).
pIC50: −log10 of the molar value.

What was measured:
GABAA receptor = assay: [3H]-GABA radioligand binding assay, GABAA binding (in the presence of baclofen); conditions: inhibition of specific GABAA binding to rat synaptic membranes; [³H]-GABA 10 nM, baclofen 100 µM; read-out: IC₅₀ (nM) GABAA
Description: Male rats were killed by decapitation.
The final tissue was resuspended in fresh buffer for assay and transferred in 0.8 ml aliquots to microtubes (0.5 - 1.0 mg protein.tube).

GABAB receptor = GABAB receptor (Rattus norvegicus, UniProt Q9Z0U4); assay: biochemical
GABAB receptor, sequence (Q9Z0U4 17-960 limits assumed): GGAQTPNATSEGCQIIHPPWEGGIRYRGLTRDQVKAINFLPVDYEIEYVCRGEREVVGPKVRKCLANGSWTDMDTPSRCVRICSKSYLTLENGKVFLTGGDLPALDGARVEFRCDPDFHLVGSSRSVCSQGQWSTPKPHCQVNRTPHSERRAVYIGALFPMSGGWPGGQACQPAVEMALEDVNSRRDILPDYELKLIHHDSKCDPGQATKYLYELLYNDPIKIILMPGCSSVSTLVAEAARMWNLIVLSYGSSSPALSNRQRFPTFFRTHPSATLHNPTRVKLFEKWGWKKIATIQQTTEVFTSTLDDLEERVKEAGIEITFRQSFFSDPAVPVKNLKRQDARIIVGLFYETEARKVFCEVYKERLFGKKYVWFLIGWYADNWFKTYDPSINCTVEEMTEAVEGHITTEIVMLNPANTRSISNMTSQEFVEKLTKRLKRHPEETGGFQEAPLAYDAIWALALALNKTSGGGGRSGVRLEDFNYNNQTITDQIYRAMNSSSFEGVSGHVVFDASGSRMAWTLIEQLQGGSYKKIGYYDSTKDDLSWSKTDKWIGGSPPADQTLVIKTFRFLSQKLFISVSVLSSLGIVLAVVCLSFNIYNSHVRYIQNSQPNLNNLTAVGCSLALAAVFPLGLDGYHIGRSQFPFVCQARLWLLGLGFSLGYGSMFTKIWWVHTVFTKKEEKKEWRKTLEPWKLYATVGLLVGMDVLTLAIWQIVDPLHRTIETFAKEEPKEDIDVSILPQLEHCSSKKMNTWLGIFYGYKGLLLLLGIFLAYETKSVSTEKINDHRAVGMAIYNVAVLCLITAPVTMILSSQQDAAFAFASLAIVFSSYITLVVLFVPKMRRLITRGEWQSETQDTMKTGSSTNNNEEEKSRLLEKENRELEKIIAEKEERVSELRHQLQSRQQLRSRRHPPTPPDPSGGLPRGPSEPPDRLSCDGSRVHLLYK
GABAB receptor, sequence (O88871 41-940 partner): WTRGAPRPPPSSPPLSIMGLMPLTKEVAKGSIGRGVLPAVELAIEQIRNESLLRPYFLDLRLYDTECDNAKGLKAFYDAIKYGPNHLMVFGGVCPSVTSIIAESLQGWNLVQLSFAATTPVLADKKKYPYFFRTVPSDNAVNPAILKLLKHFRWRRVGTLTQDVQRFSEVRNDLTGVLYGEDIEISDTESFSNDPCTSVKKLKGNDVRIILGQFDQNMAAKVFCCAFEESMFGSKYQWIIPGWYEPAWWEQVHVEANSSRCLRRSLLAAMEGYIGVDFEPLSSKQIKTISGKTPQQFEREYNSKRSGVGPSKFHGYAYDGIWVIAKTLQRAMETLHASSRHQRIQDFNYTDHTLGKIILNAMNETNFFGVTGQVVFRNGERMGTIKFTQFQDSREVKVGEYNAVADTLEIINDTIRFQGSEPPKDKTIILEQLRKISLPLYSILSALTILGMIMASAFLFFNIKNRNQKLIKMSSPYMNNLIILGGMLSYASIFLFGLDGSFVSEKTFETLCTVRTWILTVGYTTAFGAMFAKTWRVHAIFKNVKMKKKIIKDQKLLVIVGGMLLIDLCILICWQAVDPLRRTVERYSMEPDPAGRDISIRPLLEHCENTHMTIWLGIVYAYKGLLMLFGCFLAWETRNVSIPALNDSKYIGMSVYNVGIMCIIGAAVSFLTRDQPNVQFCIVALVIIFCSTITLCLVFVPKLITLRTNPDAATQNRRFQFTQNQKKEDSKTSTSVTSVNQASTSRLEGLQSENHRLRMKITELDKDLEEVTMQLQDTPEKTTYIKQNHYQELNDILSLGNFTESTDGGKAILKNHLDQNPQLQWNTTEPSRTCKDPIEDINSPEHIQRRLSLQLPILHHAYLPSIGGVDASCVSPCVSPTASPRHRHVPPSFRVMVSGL
Description: Male rats were killed by decapitation. […] The homogenate was centrifuged at 1000 g to give a crude nuclear pellet (P₁) and a supernatant fraction enriched in myelin, synaptosomes and mitochrondria. The supernatant was collected and recentrifuged for 20 minutes at 20,000 g. The resulting pellet (P₂) was lysed by resuspension in distilled water and the mixture centrifuged for 20 minutes at 8,000 g. The supernatant was used to rinse off the upper layer of the pellet with the aid of a Pasteur pipette. The combined suspension was centrifuged for 20 minutes at 48,000 g. The final crude synaptic membranes were washed twice with distilled water and were either resuspended in buffer for further washing prior to use as fresh tissue or were stored frozen at -20°C. […]
[³H]-GABA (10 nM final concentrations 65 Ci/mmol) was added to each tube with or without varying concentrations of unlabelled test compound (final volume 1.0 ml). […] GABAB binding was determined by using ³H-GABA in the presence of isoguvacine (40 µM), a GABAA receptor ligand. […]
Non-specific binding was subtracted from the total amount of radioactivity bound in the absence of any drug to yield the amount of ligand specifically bound. The amount of radioactivity specifically bound at a given concentration of non-radioactive drug was expressed as a percentage of the total ligand specifically bound.

Structure (SMILES) | IC50 (GABAA receptor) [nM] | pIC50 (GABAB receptor)
NCCC[PH](=O)O [3-aminopropyl phosphinic acid] | 420 | 9.00
CP(=O)(O)CCCN [Example 1, 3-(aminopropyl)methyl phosphinic acid] | 23000 | 
